Experiments:
Hs578T [1] = experiment: Cell vitality assay (ATP assay, CellTiter-Glo); assay type: cell-based; details: Homo sapiens, Hs-578T; HS578T cell line, 72 h; Table Ib; read-out: IC50 ATP-Assay HS578T after 72 h
Summary of the method: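 Viability is estimated from cellular ATP after 72 h of compound treatment at 1000 cells per well. The dilution series runs 12.5, 6.25, 3.125, 1.56, 0.78, 0.39 and 0.195 μM. Half-maximal values are expressed against DMSO-treated wells.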

[2] = molecular target: T1, wild type AXL (wtAXL) receptor tyrosine kinase (Homo sapiens, UniProt P30530); experiment: NIH-3T3-AXL cellular kinase assay (pY-AXL-ELISA); assay type: cell-based; details: NIH-3T3-AXL (clone 22) cells, serum depleted, compounds 1 h; Table Ia
T1 construct: WtAXL cDNA was cloned into vector pLXSN(ESK) and transfected into Phoenix E packaging cells; expressed in transfected cells; host or cells: NIH3T3 N7 (mouse fibroblasts), retrovirally infected, clone 22
T1 sequence (P30530 26-894): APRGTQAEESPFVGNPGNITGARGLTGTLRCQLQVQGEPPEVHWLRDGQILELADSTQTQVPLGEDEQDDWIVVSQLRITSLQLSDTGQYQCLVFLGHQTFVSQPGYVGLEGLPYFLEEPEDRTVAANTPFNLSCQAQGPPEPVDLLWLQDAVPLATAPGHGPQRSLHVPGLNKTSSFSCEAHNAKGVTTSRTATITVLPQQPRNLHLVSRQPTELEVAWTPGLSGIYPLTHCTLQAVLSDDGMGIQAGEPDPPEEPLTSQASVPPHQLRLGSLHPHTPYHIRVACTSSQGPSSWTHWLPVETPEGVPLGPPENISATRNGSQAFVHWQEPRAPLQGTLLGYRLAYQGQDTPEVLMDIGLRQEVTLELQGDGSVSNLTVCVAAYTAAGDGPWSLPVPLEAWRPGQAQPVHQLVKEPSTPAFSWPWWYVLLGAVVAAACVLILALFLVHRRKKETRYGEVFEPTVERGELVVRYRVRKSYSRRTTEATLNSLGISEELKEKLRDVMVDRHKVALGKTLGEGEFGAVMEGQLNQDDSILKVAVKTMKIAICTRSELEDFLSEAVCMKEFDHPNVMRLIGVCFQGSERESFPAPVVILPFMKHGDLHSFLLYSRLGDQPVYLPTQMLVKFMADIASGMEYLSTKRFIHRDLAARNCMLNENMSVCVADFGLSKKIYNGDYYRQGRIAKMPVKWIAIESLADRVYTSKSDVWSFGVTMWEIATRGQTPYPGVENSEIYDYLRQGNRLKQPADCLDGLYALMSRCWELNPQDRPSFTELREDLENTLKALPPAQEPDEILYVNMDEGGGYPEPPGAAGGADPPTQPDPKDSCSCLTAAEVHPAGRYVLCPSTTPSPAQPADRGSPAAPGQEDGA
Summary of the method: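 Phospho-AXL was quantified by ELISA in lysates (4G10-biotin, streptavidin-AP, AttoPhos, 430/560 nm read at 90 min). The cells were monoclonal NIH3T3 lines stably transduced with human wtAXL, exposed to serial compound dilutions for 1 h before lysis.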

Hs578T [3] = experiment: Matrigel outgrowth assay/branching assay; assay type: cell-based; details: Homo sapiens, Hs-578T; HS578T cell line; Table Ib; read-out: Total branching inhibition in Matrigel HS578T
Summary of the method: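 Cells (5000/well) were seeded onto polymerized 3 mg/ml Matrigel with compound at 3.125, 1.56 or 0.78 μM versus DMSO. Branching was imaged by inverted microscopy (5× objective) at 48, 72 and 96 h. Only concentrations giving total branching inhibition scored positive.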

Hs578T [4] = experiment: Wound healing migration assay; assay type: cell-based; details: Homo sapiens, Hs-578T; HS578T cell line; Table Ib
Summary of the method: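 Compound exposure at 12.5, 6.25 and 3.125 μM, with DMSO control, on scratch-wounded monolayers (150000 cells/24 well, overnight). Wound closure imaged by microscopy, fixed with crystal violet after 48 h or 72 h depending on cell line; IC50 is the concentration giving 50% wound size between t0 and t48/t72.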

| IC50 [2] [µM] | melting point [°C] | IC50 (Hs578T [4]) [µM] | Compound | IC50 (Hs578T [1]) [µM] | IC50 (Hs578T [3]) [µM] |
| --- | --- | --- | --- | --- | --- |
| 0.5 to 3 | 223 to 224 | 12.5 to 50 | COc1cc2c(Oc3ccc(Cl)c(NS(=O)(=O)c4cc(Cl)ccc4Cl)c3)ccnc2cc1OCCCN1CCC(C)CC1 [Example 197, 2,5-Dichloro-N-(2-chloro-5-{6-methoxy-7-[3-(4-methyl-piperidin-1-yl)-propoxy]-quinolin-4-yloxy}-phenyl)-benzenesulfonamide] | 12.5 to 50 | 10 to 25 |
| 0.5 to 3 | 91 to 93 | ≤ 12.5 | COc1cc2c(Oc3cccc(NS(=O)(=O)c4csc5ccccc45)c3)ccnc2cc1OCCCN1CCN(C)CC1 [Example 136, Benzo[b]thiophene-3-sulfonic acid (3-{6-methoxy-7-[3-(4-methyl-piperazin-1-yl)-propoxy]-quinolin-4-yloxy}-phenyl)-amide] | ≤ 12.5 | ≤ 10 |
| 0.5 to 3 | 168 to 169 | ≤ 12.5 | COc1cc2c(Oc3ccc(NS(=O)(=O)c4ccccc4OC(F)(F)F)cc3C)ccnc2cc1OCCCN1CCC(C)CC1 [Example 174, N-(4-{6-Methoxy-7-[3-(4-methyl-piperidin-1-yl)-propoxy]-quinolin-4-yloxy}-3-methyl-phenyl)-2-trifluoromethoxy-benzenesulfonamide] | ≤ 12.5 | ≤ 10 |
| 0.5 to 3 | 185 to 187 | 12.5 to 50 | COc1cc2c(Oc3ccc(NS(=O)(=O)c4ccco4)cc3F)ccnc2cc1OCCCN(C)C [Example 185, Furan-2-sulfonic acid {4-[7-(3-dimethylamino-propoxy)-6-methoxy-quinolin-4-yloxy]-3-fluoro-phenyl}-amide] | ≤ 12.5 | 10 to 25 |
| < 0.5 | 132 to 134 | ≤ 12.5 | COc1cc2c(Oc3ccc(NS(=O)(=O)c4c(F)cccc4F)cc3F)ccnc2cc1OCCCN1CCCCC1C (centres unmarked) [Example 152, 2,6-Difluoro-N-(3-fluoro-4-{6-methoxy-7-[3-(2-methyl-piperidin-1-yl)-propoxy]-quinolin-4-yloxy}-phenyl)-benzenesulfonamide] | ≤ 12.5 | ≤ 10 |
| < 0.5 | 90 to 92 | ≤ 12.5 | COc1cc2c(Oc3ccc(NS(=O)(=O)c4ccccc4OC(F)(F)F)cc3F)ccnc2cc1OCCCN1CCCCC1C (centres unmarked) [Example 153, N-(3-Fluoro-4-{6-methoxy-7-[3-(2-methyl-piperidin-1-yl)-propoxy]-quinolin-4-yloxy}-phenyl)-2-trifluoromethoxy-benzenesulfonamide] | ≤ 12.5 | 10 to 25 |
| < 0.5 | 113 to 115 | 12.5 to 50 | COc1cc2c(Oc3ccc(NS(=O)(=O)c4cccc(F)c4)cc3F)ccnc2cc1OCCCN1CCCC(C)C1 (centres unmarked) [Example 37, 3-Fluoro-N-(3-fluoro-4-{6-methoxy-7-[3-(3-methyl-piperidin-1-yl)-propoxy]-quinolin-4-yloxy}-phenyl)-benzenesulfonamide] | ≤ 12.5 | 10 to 25 |
| 0.5 to 3 | 168 to 169 | 12.5 to 50 | COc1ccc2nccc(Oc3ccc(NS(=O)(=O)c4ccccc4C(F)(F)F)cc3F)c2c1 [Example 201, N-[3-Fluoro-4-(6-methoxy-quinolin-4-yloxy)-phenyl]-2-trifluoromethyl-benzenesulfonamide] | 12.5 to 50 | 10 to 25 |
| < 0.5 | 189 to 191 | 12.5 to 50 | COc1cc2c(Oc3ccc(NS(=O)(=O)c4cc(Cl)cc(Cl)c4OC)cc3F)ccnc2cc1OCCCN1CCOCC1 [Example 76, 3,5-Dichloro-N-{3-fluoro-4-[6-methoxy-7-(3-morpholin-4-yl-propoxy)-quinolin-4-yloxy]-phenyl}-2-methoxy-benzenesulfonamide] | ≤ 12.5 | 10 to 25 |
| < 0.5 | 127 to 129 | ≤ 12.5 | COc1cc2c(Oc3ccc(NS(=O)(=O)c4cc(Cl)ccc4Cl)cc3F)ccnc2cc1OCCCN1CCCC(C)C1 (centres unmarked) [Example 50, 2,5-Dichloro-N-(3-fluoro-4-{6-methoxy-7-[3-(3-methyl-piperidin1-yl)-propoxy]-quinolin-4-yloxy}-phenyl)-benzenesulfonamide] | ≤ 12.5 | ≤ 10 |
| < 0.5 | 132 to 135 | ≤ 12.5 | COc1cc2c(Oc3ccc(NS(=O)(=O)c4csc5ccccc45)cc3F)ccnc2cc1OCCCN1CCC(C)CC1 [Example 115, Benzo[b]thiophene-3-sulfonic acid (3-fluoro-4-{6-methoxy-7-[3-(4-methyl-piperidin-1-yl)-propoxy]-quinolin-4-loxy}-phenyl)-amide] | ≤ 12.5 | ≤ 10 |
| 0.5 to 3 | 187 to 188 | ≤ 12.5 | COc1cc2c(Oc3ccc(NS(=O)(=O)c4cc(Cl)ccc4Cl)cc3C)ccnc2cc1OCCCN1CCC(C)CC1 [Example 175, 2,5-Dichloro-N-(4-{6-methoxy-7-[3-(4-methyl-piperidin-1-yl)-propoxy]-quinolin-4-yloxy}-3-methyl-phenyl)-benzenesulfonamide] | ≤ 12.5 | ≤ 10 |
| 0.5 to 3 | 191 to 193 | ≤ 12.5 | COc1cc2c(Oc3ccc(NS(=O)(=O)c4c(F)cccc4F)cc3C)ccnc2cc1OCCCN1CCC(C)CC1 [Example 172, 2,6-Difluoro-N-(4-{6-methoxy-7-[3-(4-methyl-piperidin-1-yl)-propoxy]-quinolin-4-yloxy}-3-methyl-phenyl)-benzenesulfonamide] | ≤ 12.5 | ≤ 10 |
| < 0.5 | 99 to 101 | 12.5 to 50 | COc1cc2c(Oc3ccc(NS(=O)(=O)c4ccc(C)s4)cc3F)ccnc2cc1OCCCN1CCCC(C)C1 (centres unmarked) [Example 62, 5-Methyl-thiophene-2-sulfonic acid (3-fluoro-4-{6-methoxy-7-[3-(3-methyl-piperidin-1-yl)-propoxy]-quinolin-4-yloxy}-phenyl)-amide] | ≤ 12.5 | 10 to 25 |
| 0.5 to 3 | 118 to 119 | 12.5 to 50 | COc1cc2c(Oc3ccc(NS(=O)(=O)c4ccco4)cc3F)ccnc2cc1OCCCN1CCCCC1C (centres unmarked) [Example 148, Furan-2-sulfonic acid (3-fluoro-4-{6-methoxy-7-[3-(2-methyl-piperidin-1-yl)-propoxy]-quinolin-4-yloxy}-phenyl)-amide] | ≤ 12.5 | 10 to 25 |
| < 0.5 | 117 to 119 | ≤ 12.5 | COc1cc2c(Oc3ccc(NS(=O)(=O)c4cccs4)cc3F)ccnc2cc1OCCCN1CCCCC1C (centres unmarked) [Example 144, Thiophene-2-sulfonic acid (3-fluoro-4-{6-methoxy-7-[3-(2-methyl-piperidin-1-yl)-propoxy]-quinolin-4-yloxy}-phenyl)-amide] | ≤ 12.5 | 10 to 25 |

From patent US9169241B2, “Quinolinyloxyphenylsulfonamides” (Max-Planck-Gesellschaft Zur Forderung der Wissenschaften …, priority 2009, dated 2015)
